Source: ChEMBL document CHEMBL5247588, “Design and characterization of PROTAC degraders specific to protein N-terminal methyltransferase 1” (Eur J Med Chem, 2022)
Active and inactive are the calls of the source. No cut-off for these calls is given here.

Experiments:
[1] = target: T1, N-terminal Xaa-Pro-Lys N-methyltransferase 1 (Homo sapiens, UniProt Q9BV86); assay: Inhibition of NTMT1 (unknown origin) using SPKRIAKRRS(CONH2) peptide as substrate assessed as SAH production incubated for 10 mins in the presence of SAM by HPLC analysis
T1 sequence (Q9BV86 whole entry): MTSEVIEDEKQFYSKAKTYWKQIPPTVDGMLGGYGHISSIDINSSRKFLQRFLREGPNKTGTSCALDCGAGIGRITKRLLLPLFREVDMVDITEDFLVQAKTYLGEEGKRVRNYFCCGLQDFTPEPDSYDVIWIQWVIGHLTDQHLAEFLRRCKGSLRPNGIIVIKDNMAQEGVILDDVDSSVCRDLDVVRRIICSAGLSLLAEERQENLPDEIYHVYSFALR

[2] = target: T2, N-terminal Xaa-Pro-Lys N-methyltransferase 1 (Homo sapiens) (UniProt Q9BV86); assay: Potency index, ratio of DC541 IC50 to test compound IC50 for inhibition of NTMT1 (unknown origin) using SPKRIAKRRS(CONH2) peptide as substrate assessed as SAH production incubated for 10 mins in the presence of SAM by HPLC analysis
T2 sequence (whole entry): T1 sequence (Q9BV86 whole entry)

[3] = target: T3, von Hippel-Lindau disease tumor suppressor/N-terminal Xaa-Pro-Lys N-methyltransferase 1 (Homo sapiens) (UniProt P40337+Q9BV86); assay: PROTAC activity at VHL/NTMT1 in human HCT-116 cells assessed as reduction in NTMT1 protein level at 50 uM incubated for 24 hrs by Western blot analysis; type: cell-based
[4] = target: T3, von Hippel-Lindau disease tumor suppressor/N-terminal Xaa-Pro-Lys N-methyltransferase 1 (Homo sapiens); assay: PROTAC activity at VHL/NTMT1 in human HT-29 cells assessed as reduction in NTMT1 protein level at 50 uM incubated for 24 hrs by Western blot analysis; type: cell-based
[5] = system: HCT-116; assay: Cytotoxicity against human HCT-116 cells assessed as reduction in cell viability at 1 to 64 uM incubated for 24 hrs by WST-8 assay; type: toxicity, cell-based; details: hct-116, 24 h, dose 1-64 µM
[6] = system: HT-29; assay: Cytotoxicity against human HT-29 cells assessed as reduction in cell viability at 1 to 64 uM measured after 24 hrs by WST-8 assay; type: toxicity, cell-based; details: ht-29, 24 h, dose 1-64 µM
[7] = system: HCT-116; assay: Antiproliferative activity against human HCT-116 cells assessed as reduction in cell proliferation incubated for 72 hrs by fluorescence based microplate reader analysis; type: functional; details: dose 1-64 µM
[8] = system: HCT-116; assay: Antiproliferative activity against human HCT-116 cells assessed as inhibition of cell proliferation at 1 to 64 uM incubated for 72 hrs by fluorescence based microplate reader analysis relative to control; type: functional; details: dose 1-64 µM
[9] = system: HCT-116; assay: Antiproliferative activity against NTMT1 knockout human HCT-116 cells at 1 to 64 uM incubated for 72 hrs by fluorescence based microplate reader analysis; type: functional, cell-based; details: dose 1-64 µM
[10] = system: HCT-116; assay: Antiproliferative activity against human HCT-116 cells assessed as reduction in tumor spheroid growth at 64 uM measured after 12 days by imaging analysis relative to control; type: functional; design: scale not given: the % may be the effect or the level left; details: time 12 day
[11] = system: HCT-116; assay: Antiproliferative activity against human HCT-116 cells cultured in PG-S assessed as decrease in cell number at 64 uM measured after 3 days by AO/PI staining based cell counter analysis relative to control; type: functional; design: scale not given: the % may be the effect or the level left; details: time 3 day
[12] = Upregulation of CALR in human HCT-116 cells assessed as fold change at 25 uM incubated for 24 hrs by Western blot analysis relative to control; type: functional
[13] = target: T3, von Hippel-Lindau disease tumor suppressor/N-terminal Xaa-Pro-Lys N-methyltransferase 1 (Homo sapiens); assay: PROTAC activity at VHL/NTMT1 in human HCT-116 cells assessed as reduction in NTMT1 protein level incubated for 24 hrs by Western blot analysis; type: cell-based
[14] = target: T3, von Hippel-Lindau disease tumor suppressor/N-terminal Xaa-Pro-Lys N-methyltransferase 1 (Homo sapiens); assay: PROTAC activity at VHL/NTMT1 in human HT-29 cells assessed as reduction in NTMT1 protein level incubated for 24 hrs by Western blot analysis; type: cell-based
[15] = target: T3, von Hippel-Lindau disease tumor suppressor/N-terminal Xaa-Pro-Lys N-methyltransferase 1 (Homo sapiens); assay: PROTAC activity at VHL/NTMT1 in human HCT-116 cells assessed as reduction in NTMT1 protein level by measuring maximal efficacy at 0.1 to 50 uM incubated for 24 hrs by Western blot analysis relative to control; type: cell-based; details: dose 0.1-50 µM
[16] = target: T3, von Hippel-Lindau disease tumor suppressor/N-terminal Xaa-Pro-Lys N-methyltransferase 1 (Homo sapiens); assay: PROTAC activity at VHL/NTMT1 in human HT-29 cells assessed as reduction in NTMT1 protein level by measuring maximal efficacy at 0.1 to 50 uM incubated for 24 hrs by Western blot analysis relative to control; type: cell-based; details: dose 0.1-50 µM
[17] = target: T3, von Hippel-Lindau disease tumor suppressor/N-terminal Xaa-Pro-Lys N-methyltransferase 1 (Homo sapiens); assay: PROTAC activity at VHL/NTMT1 in human HCT-116 cells assessed as reduction in NTMT1 protein level at 50 uM preincubated with MG132 for 2 hrs followed by compound addition and measured after 24 hrs by Western blot analysis; type: cell-based
[18] = target: T3, von Hippel-Lindau disease tumor suppressor/N-terminal Xaa-Pro-Lys N-methyltransferase 1 (Homo sapiens); assay: PROTAC activity at VHL/NTMT1 in human HCT-116 cells assessed as reduction in NTMT1 protein level at 50 uM preincubated with MLN4924 for 2 hrs followed by compound addition and measured after 24 hrs by Western blot analysis; type: cell-based
[19] = target: T3, von Hippel-Lindau disease tumor suppressor/N-terminal Xaa-Pro-Lys N-methyltransferase 1 (Homo sapiens); assay: PROTAC activity at VHL/NTMT1 in human HCT-116 cells co-expressing eGFP fusion protein assessed as reduction in NTMT1 protein level by measuring reduction in eGFP fluorescence at 100 uM incubated for 24 hrs by fluorescence microscopic analysis; type: cell-based
[20] = target: T3, von Hippel-Lindau disease tumor suppressor/N-terminal Xaa-Pro-Lys N-methyltransferase 1 (Homo sapiens); assay: PROTAC activity at VHL/NTMT1 in human HCT-116 cells assessed as reduction in NTMT1 protein level by measuring maximal efficacy at 50 uM measured at 3 hrs by Western blot analysis relative to control; type: cell-based
[21] = target: T3, von Hippel-Lindau disease tumor suppressor/N-terminal Xaa-Pro-Lys N-methyltransferase 1 (Homo sapiens); assay: PROTAC activity at VHL/NTMT1 in human HT-29 cells assessed as reduction in NTMT1 protein level at 50 uM measured upto 6 hrs by Western blot analysis; type: cell-based
[22] = target: T3, von Hippel-Lindau disease tumor suppressor/N-terminal Xaa-Pro-Lys N-methyltransferase 1 (Homo sapiens); assay: PROTAC activity at VHL/NTMT1 in human HT-29 cells assessed as reduction in NTMT1 protein level by measuring maximal efficacy at 50 uM measured after 24 hrs by Western blot analysis relative to control; type: cell-based
[23] = target: T3, von Hippel-Lindau disease tumor suppressor/N-terminal Xaa-Pro-Lys N-methyltransferase 1 (Homo sapiens); assay: PROTAC activity at VHL/NTMT1 in human HT-29 cells assessed as reduction in NTMT1 protein level at 50 uM preincubated with compound for 24 hrs followed by compound washout and measured after 20 hrs by Western blot analysis; type: cell-based
[24] = target: T3, von Hippel-Lindau disease tumor suppressor/N-terminal Xaa-Pro-Lys N-methyltransferase 1 (Homo sapiens); assay: PROTAC activity at VHL/NTMT1 in human HCT-116 cells assessed as reduction in NTMT1 protein level at 50 uM preincubated with compound for 24 hrs followed by compound washout and measured after 20 hrs by Western blot analysis; type: cell-based
[25] = target: T4, von Hippel-Lindau disease tumor suppressor/N-terminal Xaa-Pro-Lys N-methyltransferase 2 (Homo sapiens) (UniProt P40337+Q5VVY1); assay: PROTAC activity at VHL/NTMT2 in human HCT-116 cells assessed as reduction in NTMT2 protein level at 5 to 50 uM incubated for 24 hrs by Western blot analysis; type: cell-based; details: dose 5-50 µM
[26] = target: T4, von Hippel-Lindau disease tumor suppressor/N-terminal Xaa-Pro-Lys N-methyltransferase 2 (Homo sapiens); assay: PROTAC activity at VHL/NTMT2 in human HT-29 cells assessed as reduction in NTMT2 protein level at 5 to 50 uM incubated for 24 hrs by Western blot analysis; type: cell-based; details: dose 5-50 µM
[27] = system: HCT-116; assay: Antiproliferative activity against human HCT-116 cells cultured in PG-S assessed as decrease in cell number measured after 3 days by AO/PI staining based cell counter analysis; type: functional; details: time 3.0 day
[28] = system: HCT-116; assay: Antiproliferative activity against human HCT-116 cells cultured in PG-S assessed as viable cells upto 64 uM measured after 3 days by AO/PI staining based cell counter analysis relative to control; type: functional; details: time 3 day, up to 64 µM
[29] = system: HCT-116; assay: Induction of cell cycle arrest in human HCT-116 cells assessed as accumulation of cells at G0/G1 phase incubated for 3 days by PI staining based flow cytometric analysis; type: functional; details: time 3.0 day
[30] = system: HCT-116; assay: Induction of cell cycle arrest in human HCT-116 cells assessed as G0/G1 phase cells at 64 uM incubated for 3 days by PI staining based flow cytometric analysis (reference value: 65%); type: functional; details: time 3 day
[31] = system: HCT-116; assay: Induction of cell cycle arrest in human HCT-116 cells assessed as decrease in S phase cells at 64 uM incubated for 3 days by PI staining based flow cytometric analysis; type: functional; details: time 3.0 day
[32] = system: HCT-116; assay: Downregulation of NTMT1 in human HCT-116 cells at 25 uM incubated for 24 hrs by LC-MS based proteomic analysis; type: functional, cell-based
[33] = system: HCT-116; assay: Upregulation of CALR in human HCT-116 cells at 25 uM incubated for 24 hrs by LC-MS based proteomic analysis; type: functional, cell-based
[34] = system: HCT-116; assay: Downregulation of NTMT1 in human HCT-116 cells at 25 uM incubated for 24 hrs by Western-blot analysis; type: functional, cell-based

T3 sequence (P40337 whole entry, looked up, one chain of several): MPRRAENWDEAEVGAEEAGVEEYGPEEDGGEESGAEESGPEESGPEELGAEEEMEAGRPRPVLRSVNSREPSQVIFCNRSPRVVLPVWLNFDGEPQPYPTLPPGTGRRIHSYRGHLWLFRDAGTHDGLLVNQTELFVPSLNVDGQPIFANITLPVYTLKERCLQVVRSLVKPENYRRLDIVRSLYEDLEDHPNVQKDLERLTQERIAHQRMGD
T4 sequence (P40337 whole entry, looked up): as the sequence (P40337 whole entry, looked up, one chain of several) above
T4 sequence (Q5VVY1 whole entry, looked up): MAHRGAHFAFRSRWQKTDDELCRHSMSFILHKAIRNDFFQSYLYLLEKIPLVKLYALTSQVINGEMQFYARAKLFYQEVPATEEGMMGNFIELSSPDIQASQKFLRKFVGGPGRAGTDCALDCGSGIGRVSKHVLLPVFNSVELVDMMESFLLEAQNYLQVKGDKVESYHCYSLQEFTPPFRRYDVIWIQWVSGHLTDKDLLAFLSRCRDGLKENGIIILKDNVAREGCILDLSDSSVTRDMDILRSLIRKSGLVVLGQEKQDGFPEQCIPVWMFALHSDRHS

SMILES: Cc1ncsc1-c1ccc(CNC(=O)[C@@H]2C[C@H](O)CN2C(=O)[C@H](C(C)C)N2Cc3ccccc3C2=O)c(OCCNC(=O)c2ccccc2NC(=O)[C@H](CCCCN)NC(=O)[C@@H]2CCCN2C(=O)Cc2cccc3ccccc23)c1
- IC50 [1]: 2420 nM
- Ratio IC50 [2]: 2
- Activity [3]: inactive
- Activity [4]: inactive
- Activity [5]: Non-Toxic
- Activity [6]: Non-Toxic
- Activity [7]: Active
- inhibition (INH) [8]: 22%
- Activity [9]: inactive
- Activity [10]: 32%
- Activity [11]: 78%
- fold change (FC) [12]: 1.1

SMILES: Cc1ncsc1-c1ccc(CNC(=O)[C@@H]2C[C@@H](O)CN2C(=O)[C@H](C(C)C)N2Cc3ccccc3C2=O)c(OCCOCCNC(=O)c2ccccc2NC(=O)[C@H](CCCCN)NC(=O)[C@@H]2CCCN2C(=O)Cc2cccc3ccccc23)c1
- IC50 [1]: 2000 nM
- Ratio IC50 [2]: 2
- Activity [13]: Dose-Dependent Effect
- Activity [14]: Dose-Dependent Effect

SMILES: Cc1ncsc1-c1ccc(CNC(=O)[C@@H]2C[C@@H](O)CN2C(=O)[C@H](C(C)C)N2Cc3ccccc3C2=O)c(OCCNC(=O)c2ccccc2NC(=O)[C@H](CCCCN)NC(=O)[C@@H]2CCCN2C(=O)Cc2cccc3ccccc23)c1
- IC50 [1]: 1770 nM
- Ratio IC50 [2]: 2
- Activity [13]: Dose-Dependent Effect
- Activity [14]: Dose-Dependent Effect
- Activity [3]: Active
- Emax [15]: > 90%
- Emax [16]: > 90%
- Activity [17]: inactive
- Activity [18]: inactive
- Activity [19]: Active
- Emax [20]: > 60%
- Activity [21]: inactive
- Emax [22]: > 90%
- Activity [23]: inactive
- Activity [24]: inactive
- Activity [25]: inactive
- Activity [26]: inactive
- Activity [5]: Non-Toxic
- Activity [6]: Non-Toxic
- Activity [7]: Active
- inhibition (INH) [8]: 47%
- Activity [9]: inactive
- Activity [10]: 62%
- Activity [27]: Dose-Dependent Effect
- Activity [11]: 68%
- Activity [28]: >92%
- Activity [29]: Dose-Dependent Effect
- Activity [30]: 71%
- Activity [31]: Active
- Activity [32]: Active
- Activity [33]: Active
- Activity [34]: Active
- fold change (FC) [12]: 1.5

SMILES: NCCCC[C@H](NC(=O)[C@@H]1CCCN1C(=O)Cc1cccc2ccccc12)C(=O)Nc1ccccc1C(=O)O
- IC50 [1]: 9180 nM

SMILES: Cc1ncsc1-c1ccc(CNC(=O)[C@@H]2C[C@@H](O)CN2C(=O)[C@H](C(C)C)N2Cc3ccccc3C2=O)c(OCCOCCOCCOCCNC(=O)c2ccccc2NC(=O)[C@H](CCCCN)NC(=O)[C@@H]2CCCN2C(=O)Cc2cccc3ccccc23)c1
- IC50 [1]: 2000 nM
- Ratio IC50 [2]: 2
- Activity [13]: Dose-Dependent Effect
- Activity [14]: Dose-Dependent Effect

SMILES: NCCCC[C@H](NC(=O)[C@@H]1CCCN1C(=O)Cc1cccc2ccccc12)C(=O)Nc1ccccc1C(N)=O
- IC50 [1]: 4380 nM
